{
  "source": "patent US8394954B2",
  "about": "“Benzophenone hybrids as anticancer agents and processes for the preparation thereof” (Council of Scientific & Industrial Research, priority 2007, dated 2013)",
  "key": {"[1]": {"system": "ovarian cancer OVCAR-5 cell line", "assay": "NCI in vitro anticancer screen, OVCAR-5", "format": "cell-based", "settings": "Homo sapiens", "experimental": "(§1) Compounds described herein were evaluated for in vitro anticancer activity. Particularly the 6a, 6b, 6d, 6h, 8a and 8b compounds were evaluated for in vitro anticancer activity against sixty human tumor cells derived from nine cancer types (leukemia, non-small-cell lung, colon, […], ovarian, prostate, and breast cancer) as shown in (Table 2 and 3). For the compound, dose response curves for each cell line were measured at a minimum of five concentrations at 10 fold dilutions. A protocol of 48 h continuous drug exposure was used and a sulforhodamine B (SRB) protein assay was used to estimate cell viability or growth. The concentration causing 50% cell growth inhibition (GI50), total cell growth inhibition (TGI 0% growth) and 50% cell death (LC50, −50% growth) compared with the control was calculated.\n(§2) In the non-small cell lung cancer panel, the growth of HOP-62, […] were affected by compound 6d with G150 values as 11.7, 13.9 and 17.2 nM respectively. […] In vitro cytotoxicity of compounds 6d, 8a, and 8b in selected cancer cell lines has been illustrated in Table 3. The average G150 values for each cancer panel of compounds 6a, 6b, 6d, 6e, 8a and 8b have been illustrated in Table 2."}, "[2]": {"system": "HOP-62, NCI-H23 cell lines", "assay": "NCI in vitro anticancer screen, non-small cell lung lines", "format": "cell-based", "settings": "Homo sapiens, non-small cell lung cancer panel", "experimental": "as §1, §2"}, "[3]": {"system": "Melanoma cancer cell lines", "assay": "NCI in vitro anticancer screen, melanoma panel", "format": "cell-based, human", "settings": "Homo sapiens, average of six to nine cell lines, read-out: Log GI50 (concentration in mol/L causing 50% growth inhibition) (converted)", "experimental": "as §1"}, "[4]": {"system": "human cancer cell lines of colon (Colo205), lung (Hop-62), cervix (SiHa), prostate (DU145, PC3), oral (DWD, HT1080), and breast (MCF7, Zr-75-1) origin", "assay": "In vitro evaluation of cytotoxic activity in selected human cancer cell lines, 48 h exposure", "format": "cell-based", "settings": "48 h continuous drug exposure", "experimental": "In vitro evaluation of cytotoxic activity. Compounds 6a, 6b, 6d, 6e, 8a and 8b were evaluated for in vitro anticancer activity against nine human tumor cells derived from six cancer types (colon, prostate, oral, lung, cervix and breast cancer) as shown in Table 2. […] Compounds 6a, 6b, 6d, 6e, 8a and 8b have been evaluated for their in vitro cytotoxicity in selected human cancer cell lines of colon (Colo205), lung (Hop-62), cervix (SiHa), prostate (DU145, PC3), oral (DWD, HT1080), and breast (MCF7, Zr-75-1) origin. A protocol of 48 h continuous drug exposure has been used and an […] has been used to estimate cell viability or growth. The results are expressed as percent of cell growth determined relative to that of untreated control cells"}, "[5]": {"system": "CNS SF-295, SF-539, SNB-19 and SNB-75 cell lines", "assay": "NCI in vitro anticancer screen, CNS lines", "format": "cell-based", "settings": "Homo sapiens; range over SF-295, SF-539, SNB-19 and SNB-75", "experimental": "as §1, §2"}, "[6]": {"system": "Leukemia cancer cell lines", "assay": "NCI in vitro anticancer screen, leukemia panel", "format": "cell-based, human", "settings": "Homo sapiens, average of six to nine cell lines, read-out: Log GI50 (concentration in mol/L causing 50% growth inhibition) (converted)", "experimental": "as §1"}, "[7]": {"system": "ovarian cancer OVCAR-4 cell line", "assay": "NCI in vitro anticancer screen, OVCAR-4", "format": "cell-based", "settings": "Homo sapiens", "experimental": "as §1, §2"}, "[8]": {"system": "duplex-form calf thymus DNA (CT-DNA)", "assay": "Thermal denaturation studies with CT-DNA", "format": "binding", "settings": "[BPD]:[DNA] molar ratio 1:5, CT-DNA 100 μM, ligand 20 μM, pH 7.00", "experimental": "Compounds were subjected to thermal denaturation studies with duplex-form calf thymus DNA (CT-DNA). Working solutions in aqueous buffer (10 mM NaH2PO4/Na2HPO4, 1 mM Na2EDTA, pH 7.00+0.01) containing CT-DNA (100 μm in phosphate) and the BPD (20 μm) were prepared by addition of concentrated BPD solutions in DMSO to obtain a fixed [BPD]/[DNA] molar ratio of 1:5. The DNA-BPD solutions were incubated at 37° C. for 0, 18, and 36 h prior to analysis. Samples were monitored at 260 nm using a Beckman DU-7400 spectrophotometer fitted with high performance temperature controller, and heating was applied at 1° C. min-1 in the 40-90° C. range. DNA helix coil transition temperatures (Tm) were obtained from the maxima in the (dA260)/dT derivative plots. Results are given as the mean±standard deviation from three determinations and are corrected for the effects of DMSO co-solvent using a linear correction term. Drug-induced alterations in DNA melting behavior are given by: ΔTm=Tm(DNA+BPD)−Tm(DNA alone), where the Tm value for the BPD-free CT-DNA is 69.0±0.01."}, "[9]": {"system": "colon cancer HCT-116 cell line", "assay": "NCI in vitro anticancer screen, HCT-116", "format": "cell-based", "settings": "Homo sapiens", "experimental": "as §1, §2"}, "[10]": {"system": "Nonsmall-cell-lung cancer cell lines", "assay": "NCI in vitro anticancer screen, non-small-cell lung panel", "format": "cell-based, human", "settings": "Homo sapiens, average of six to nine cell lines, read-out: Log GI50 (concentration in mol/L causing 50% growth inhibition) (converted)", "experimental": "as §1"}, "[11]": {"system": "colon cancer HCC-2988 cell line", "assay": "NCI in vitro anticancer screen, HCC-2988", "format": "cell-based", "settings": "Homo sapiens", "experimental": "as §1, §2"}, "[12]": {"system": "renal and breast cancer panels", "assay": "NCI in vitro anticancer screen, renal and breast panels", "format": "cell-based", "settings": "Homo sapiens; range over renal and breast cancer panels", "experimental": "as §1, §2"}, "[13]": {"system": "Prostate cancer cell lines", "assay": "NCI in vitro anticancer screen, prostate panel", "format": "cell-based, human", "settings": "Homo sapiens, average of six to nine cell lines, read-out: Log GI50 (concentration in mol/L causing 50% growth inhibition) (converted)", "experimental": "as §1"}, "[14]": {"system": "Renal cancer cell lines", "assay": "NCI in vitro anticancer screen, renal panel", "format": "cell-based, human", "settings": "Homo sapiens, average of six to nine cell lines, read-out: Log GI50 (concentration in mol/L causing 50% growth inhibition) (converted)", "experimental": "as §1"}, "[15]": {"system": "CNS cancer cell lines", "assay": "NCI in vitro anticancer screen, CNS panel", "format": "cell-based, human", "settings": "Homo sapiens, average of six to nine cell lines, read-out: Log GI50 (concentration in mol/L causing 50% growth inhibition) (converted)", "experimental": "as §1"}, "[16]": {"system": "colon cancer KM12 cell line", "assay": "NCI in vitro anticancer screen, KM12", "format": "cell-based", "settings": "Homo sapiens", "experimental": "as §1, §2"}, "[17]": {"system": "Colon cancer cell lines", "assay": "NCI in vitro anticancer screen, colon panel", "format": "cell-based, human", "settings": "Homo sapiens, average of six to nine cell lines, read-out: Log GI50 (concentration in mol/L causing 50% growth inhibition) (converted)", "experimental": "as §1"}, "[18]": {"system": "sixty human tumor cells derived from nine cancer types", "assay": "NCI in vitro anticancer screen, 48 h exposure, SRB assay, mean over all lines", "format": "cell-based", "experimental": "as §1"}, "[19]": {"system": "ovarian cancer SK-OV-3 cell line", "assay": "NCI in vitro anticancer screen, SK-OV-3", "format": "cell-based", "settings": "Homo sapiens", "experimental": "as §1, §2"}, "[20]": {"system": "Breast cancer cell lines", "assay": "NCI in vitro anticancer screen, breast panel", "format": "cell-based, human", "settings": "Homo sapiens, average of six to nine cell lines, read-out: Log GI50 (concentration in mol/L causing 50% growth inhibition) (converted)", "experimental": "as §1"}, "[21]": {"system": "ovarian cancer OVCAR-8 cell line", "assay": "NCI in vitro anticancer screen, OVCAR-8", "format": "cell-based", "settings": "Homo sapiens", "experimental": "as §1, §2"}, "[22]": {"system": "Ovarian cancer cell lines", "assay": "NCI in vitro anticancer screen, ovarian panel", "format": "cell-based, human", "settings": "Homo sapiens, average of six to nine cell lines, read-out: Log GI50 (concentration in mol/L causing 50% growth inhibition) (converted)", "experimental": "as §1"}},
  "data": [
    {"molecule": "O=C(CN1CCN(c2ncnc3ccccc23)CC1)Nc1ccc(Cl)cc1C(=O)c1ccccc1Cl", "note": "[Compound 6d, N1-4-chloro-2-(2-chlorobenzoyl)phenylJ-2-[4-(4-quinazolinyl)piperazino]acetamide]", "values": [
      {"measurement": "GI50", "setting": "[1]", "value": 14.9, "unit": "nM"},
      {"measurement": "GI50", "setting": "[2]", "value": 11.7, "unit": "nM"},
      {"measurement": "GI50", "setting": "[3]", "value": 204, "unit": "nM"},
      {"measurement": "cytotoxicity against some cancer cell lines", "setting": "[4]", "value": "promising cytotoxicity"},
      {"measurement": "GI50", "setting": "[5]", "value": "11.6 to 24.2", "unit": "nM"},
      {"measurement": "GI50", "setting": "[6]", "value": 151, "unit": "nM"},
      {"measurement": "GI50", "setting": "[7]", "value": 30.6, "unit": "nM"},
      {"measurement": "ΔTm after incubation at 37° C. for 0 h", "setting": "[8]; 0 h", "value": 1.5, "unit": "°C"},
      {"measurement": "ΔTm after incubation at 37° C. for 18 h", "setting": "[8]; 18 h", "value": 1.9, "unit": "°C"},
      {"measurement": "ΔTm after incubation at 37° C. for 36 h", "setting": "[8]; 36 h", "value": 2.7, "unit": "°C"},
      {"measurement": "GI50", "setting": "[9]", "value": 11.2, "unit": "nM"},
      {"measurement": "GI50", "setting": "[10]", "value": 389, "unit": "nM"},
      {"measurement": "GI50", "setting": "[11]", "value": 11.6, "unit": "nM"},
      {"measurement": "GI50", "setting": "[12]", "value": "11.6 to 43.4", "unit": "nM"},
      {"measurement": "GI50", "setting": "[13]", "value": 398, "unit": "nM"},
      {"measurement": "GI50", "setting": "[14]", "value": 214, "unit": "nM"},
      {"measurement": "GI50", "setting": "[15]", "value": 224, "unit": "nM"},
      {"measurement": "GI50", "setting": "[16]", "value": 11.4, "unit": "nM"},
      {"measurement": "GI50", "setting": "[17]", "value": 229, "unit": "nM"},
      {"measurement": "GI50", "setting": "[18]; Homo sapiens, wide spectrum of activity against sixty cell lines in nine cell panels", "value": "< 20000", "unit": "nM"},
      {"measurement": "Log10LC50 mean graph midpoint (MG_MID)", "setting": "[18]; human tumor cell lines, 48 h exposure, 50% cell death", "value": "−4.62"},
      {"measurement": "Log10GI50 mean graph midpoint (MG_MID)", "setting": "[18]; human tumor cell lines, 48 h exposure, 50% cell growth inhibition", "value": "−6.82"},
      {"measurement": "Log10TGI mean graph midpoint (MG_MID)", "setting": "[18]; human tumor cell lines, 48 h exposure, total cell growth inhibition", "value": "−6.56"},
      {"measurement": "GI50", "setting": "[19]", "value": 78.6, "unit": "nM"},
      {"measurement": "GI50", "setting": "[20]", "value": 178, "unit": "nM"},
      {"measurement": "GI50", "setting": "[21]", "value": 30.5, "unit": "nM"},
      {"measurement": "GI50", "setting": "[22]", "value": 219, "unit": "nM"}
    ]}
  ]
}
